{
  "source": "patent US20160150766A1",
  "about": "“ADVANCING GENETIC GAIN IN BOVINE” (priority 2013, published 2016)",
  "tested_on": "prepubescent calves",
  "experiment": "Laparoscopic oocyte retrieval from superstimulated prepubescent calves",
  "assay_type": "in vivo, bovine",
  "conditions": "calves 3.5-6 months of age, superstimulated: progesterone CIDR, FSH s.c. at 12-hour intervals (20/15/10 mg/dose), 50 mg LH i.v.; aspiration 23 hours after LH",
  "procedure": "Laparoscopic oocyte retrieval in prepubescent calves younger than six months of age provides an avenue of shortening the generation interval, thus increasing the rate of genetic gain. […] Three laparoscopic oocyte retrievals were performed on each calf, and the oocytes collected were fertilized in vitro and cultured to the blastocyst stage of development. Resulting embryos were transferred fresh into synchronized recipients, and pregnancies were carried out to Day 60. On average, nine oocytes were retrieved per aspiration when the calves were superstimulated. An average of six oocytes were retrieved from calves that had no FSH treatment.\nCalves 3.5-6 months of age were used as egg donors. Initially a progesterone releasing device designed for sheep (Eazi Breed CIDR, Zoetis, USA) containing 0.3 g progesterone was inserted into the vagina of each calf and remained there for 12 days. The device was then removed for six days. A new CIDR was inserted and left for 12 days.\nSuperstimulation started nine days after insertion of the CIDR with the injection of […] follicle stimulating hormone (FSH) s.c. at 12-hour intervals, starting with two doses of 20 mg/dose, then two doses of 15 mg/dose, and finally two doses of 10 mg by the last injections. The CIDR was removed at the time of the final FSH injection and 50 mg of LH administered i.v. 2.5 days after removal of the CIDR. […]",
  "data": [
    {"substance": "follicle stimulating hormone [FSH]", "values": [
      {"measurement": "oocytes retrieved per aspiration (average)", "result": "nine"}
    ]}
  ]
}
